Like-named read-outs stand apart in the source and are kept apart here.
Experiment: Single ascending dose study in healthy subjects, pharmacokinetics of compound of Formula I
Assay type: in vivo, human
Conditions: for concentration at 0.5 h / concentration at 1 h / concentration at 1.5 h / concentration at 2 h / concentration at 3 h / concentration at 4 h / concentration at 5 h / concentration at 6 h / concentration at 8 h / concentration at 12 h / concentration at 24 h / concentration at 48 h / Tmax / half-life / Cmax / CL renal / Vd/F: human, plasma; for concentration at 0.5 h / concentration at 1 h / concentration at 1.5 h / concentration at 2 h / concentration at 3 h / concentration at 4 h / concentration at 5 h / concentration at 6 h / concentration at 8 h / concentration at 12 h / concentration at 24 h / concentration at 48 h: mean; for Vd/F: read-out: Vz/F (apparent volume of distribution after oral administration)
Method: A Phase 1, single-center, subject- and investigator-blind, single-ascending dose, placebo-controlled, crossover, randomized study is performed to evaluate safety, tolerability, and pharmacokinetics (PK) of the compound of Formula I in healthy subjects. The study is conducted in 2 alternating cohorts (cohorts 1 and 2) in up to 3 study periods across 6 dose levels. Subjects are randomized to 1 of 3 treatment sequences in each cohort, with each sequence including 2 doses of compound of Formula I and 1 placebo dose over the 3 study periods in a complete crossover manner.
After an overnight fast of at least 8 hours, oral capsules are administered with approximately 240 mL of room-temperature water in the morning of each dosing day in a sitting position. Doses of 0.15 mg to 2 mg are administered as an oral solution of compound of Formula I via an oral dosing syringe with water similar to oral capsule dosing.
The capsules containing the compound of Formula I are prepared extemporaneously. Oral doses of 0.15 mg to 2 mg of the compound of Formula I are prepared extemporaneously as drug in solution. For any specific cohort/dosing period, the total number of capsules administered is the same for all subjects, regardless of whether assigned to placebo or the compound of Formula I. However, the number of capsules may vary between dosing periods and cohorts. This is similarly the case for extemporaneously prepared oral dosing solutions to maintain the blind. […] A matching volume of oral solution vehicle without compound of Formula I is used as placebo for the doses of 0.15 mg to 2 mg.
Venous blood samples of approximately 3 mL each are collected to determine the plasma concentrations of compound of Formula I. Concentrations of compound of Formula I are assayed using a validated liquid chromatography with tandem mass spectrometry method. PK parameter estimates for compound of Formula I are calculated using standard noncompartmental methods of analysis. Plasma concentrations of compound of Formula I are summarized by administered dose of compound of Formula I and the approximate time of PK blood sample collection. Following the procedure essentially as described above, PK data for a single ascending dose of the compound of Formula I in healthy subjects are set forth in Table 3 and Table 4.

[1] = single oral dose 0.6 mg, geometric mean (% CV)
[2] = single oral dose 2 mg, geometric mean (% CV)
[3] = single oral dose 5 mg, geometric mean (% CV)
[4] = single oral dose 10 mg, geometric mean (% CV)
[5] = single oral dose 16 mg, geometric mean (% CV)

Question: Which results are given for `CC(=O)Nc1nc(F)c(CN2CC[C@H](OCc3noc(C)n3)C[C@@H]2C)s1` [compound of Formula I, N-[4-fluoro-5-[[(2S,4S)-2-methyl-4-[(5-methyl-1,2,4-oxadiazol-3-yl)methoxy]-1-piperidyl]methyl]thiazol-2-yl]acetamide]?
Answer: AUC(0-∞) dose proportionality (0.6-mg to 16-mg dose range): increase approximately dose-proportionally; Cmax dose proportionality (0.6-mg to 16-mg dose range): increase approximately dose-proportionally; concentration at 0.5 h (single oral dose 0.15 mg): 0.271 ng/mL; concentration at 1 h (single oral dose 0.15 mg): 0.278 ng/mL; concentration at 1.5 h (single oral dose 0.15 mg): 0.246 ng/mL; concentration at 2 h (single oral dose 0.15 mg): 0.179 ng/mL; concentration at 3 h (single oral dose 0.15 mg): 0.161 ng/mL; concentration at 0.5 h (single oral dose 0.6 mg): 6.15 ng/mL; concentration at 1 h (single oral dose 0.6 mg): 6.25 ng/mL; concentration at 1.5 h (single oral dose 0.6 mg): 5.21 ng/mL; concentration at 2 h (single oral dose 0.6 mg): 4.84 ng/mL; concentration at 3 h (single oral dose 0.6 mg): 3.96 ng/mL; concentration at 4 h (single oral dose 0.6 mg): 3.6 ng/mL; concentration at 5 h (single oral dose 0.6 mg): 3.02 ng/mL; concentration at 6 h (single oral dose 0.6 mg): 2.35 ng/mL; concentration at 8 h (single oral dose 0.6 mg): 2.1 ng/mL; concentration at 12 h (single oral dose 0.6 mg): 1.09 ng/mL; concentration at 24 h (single oral dose 0.6 mg): 0.307 ng/mL; concentration at 0.5 h (single oral dose 2 mg): 16.2 ng/mL; concentration at 1 h (single oral dose 2 mg): 21.8 ng/mL; concentration at 1.5 h (single oral dose 2 mg): 19.5 ng/mL; concentration at 2 h (single oral dose 2 mg): 18.6 ng/mL; concentration at 3 h (single oral dose 2 mg): 15.3 ng/mL; concentration at 4 h (single oral dose 2 mg): 12.6 ng/mL; concentration at 5 h (single oral dose 2 mg): 10.5 ng/mL; concentration at 6 h (single oral dose 2 mg): 8.75 ng/mL; concentration at 8 h (single oral dose 2 mg): 7.09 ng/mL; concentration at 12 h (single oral dose 2 mg): 4.24 ng/mL; concentration at 24 h (single oral dose 2 mg): 1.34 ng/mL; concentration at 0.5 h (single oral dose 5 mg): 14.6 ng/mL; concentration at 1 h (single oral dose 5 mg): 58.9 ng/mL; concentration at 1.5 h (single oral dose 5 mg): 55.3 ng/mL; concentration at 2 h (single oral dose 5 mg): 50.3 ng/mL; concentration at 3 h (single oral dose 5 mg): 43.1 ng/mL; concentration at 4 h (single oral dose 5 mg): 36.5 ng/mL; concentration at 5 h (single oral dose 5 mg): 29.5 ng/mL; concentration at 6 h (single oral dose 5 mg): 24.8 ng/mL; concentration at 8 h (single oral dose 5 mg): 18.4 ng/mL; concentration at 12 h (single oral dose 5 mg): 9.74 ng/mL; concentration at 24 h (single oral dose 5 mg): 2.76 ng/mL; concentration at 48 h (single oral dose 5 mg): 0.634 ng/mL; concentration at 0.5 h (single oral dose 10 mg): 28.8 ng/mL; concentration at 1 h (single oral dose 10 mg): 122 ng/mL; concentration at 1.5 h (single oral dose 10 mg): 127 ng/mL; concentration at 2 h (single oral dose 10 mg): 125 ng/mL; concentration at 3 h (single oral dose 10 mg): 106 ng/mL; concentration at 4 h (single oral dose 10 mg): 100 ng/mL; concentration at 5 h (single oral dose 10 mg): 81.7 ng/mL; concentration at 6 h (single oral dose 10 mg): 72.3 ng/mL; concentration at 8 h (single oral dose 10 mg): 55.1 ng/mL; concentration at 12 h (single oral dose 10 mg): 32.7 ng/mL; concentration at 24 h (single oral dose 10 mg): 11 ng/mL; concentration at 48 h (single oral dose 10 mg): 2.28 ng/mL; concentration at 0.5 h (single oral dose 16 mg): 59.7 ng/mL; concentration at 1 h (single oral dose 16 mg): 150 ng/mL; concentration at 1.5 h (single oral dose 16 mg): 183 ng/mL; concentration at 2 h (single oral dose 16 mg): 187 ng/mL; concentration at 3 h (single oral dose 16 mg): 153 ng/mL; concentration at 4 h (single oral dose 16 mg): 127 ng/mL; concentration at 5 h (single oral dose 16 mg): 100 ng/mL; concentration at 6 h (single oral dose 16 mg): 88 ng/mL; concentration at 8 h (single oral dose 16 mg): 63 ng/mL; concentration at 12 h (single oral dose 16 mg): 32.2 ng/mL; concentration at 24 h (single oral dose 16 mg): 6.83 ng/mL; concentration at 48 h (single oral dose 16 mg): 0.828 ng/mL; Tmax (oral, summary over the single ascending doses, read-out: median tmax): ~1 h; half-life (oral, summary over the single ascending doses, read-out: t1/2 (converted)): ~6 h; Cmax (single oral dose 0.15 mg, geometric mean (% CV)): 0.318 ng/mL; Tmax (single oral dose 0.15 mg, median, read-out: tmax): 1.02 h; Cmax [1]: 6.61 ng/mL; CL renal (single oral dose 0.6 mg, geometric mean (% CV), read-out: CLr (renal clearance) (converted)): 19.5 mL/min; Vd/F [1]: 120 L; half-life (single oral dose 0.6 mg, geometric mean, read-out: t1/2 (terminal half-life) (converted)): 6.08 h; Tmax (single oral dose 0.6 mg, median, read-out: tmax): 1 h; Cmax [2]: 20.9 ng/mL; CL renal (single oral dose 2 mg, geometric mean (% CV), read-out: CLr (renal clearance) (converted)): 20.8 mL/min; Vd/F [2]: 119 L; half-life (single oral dose 2 mg, geometric mean, read-out: t1/2 (terminal half-life) (converted)): 5.48 h; Tmax (single oral dose 2 mg, median, read-out: tmax): 1.25 h; Cmax [3]: 59.1 ng/mL; CL renal (single oral dose 5 mg, geometric mean (% CV), read-out: CLr (renal clearance) (converted)): 19.7 mL/min; Vd/F [3]: 114 L; half-life (single oral dose 5 mg, geometric mean, read-out: t1/2 (terminal half-life) (converted)): 6.23 h; Tmax (single oral dose 5 mg, median, read-out: tmax): 1.02 h; Cmax [4]: 134 ng/mL; CL renal (single oral dose 10 mg, geometric mean (% CV), read-out: CLr (renal clearance) (converted)): 20.3 mL/min; Vd/F [4]: 104 L; half-life (single oral dose 10 mg, geometric mean, read-out: t1/2 (terminal half-life) (converted)): 8.82 h; Tmax (single oral dose 10 mg, median, read-out: tmax): 1.5 h; Cmax [5]: 199 ng/mL; CL renal (single oral dose 16 mg, geometric mean (% CV), N = 3, read-out: CLr (renal clearance) (converted)): 16 mL/min; Vd/F [5]: 102 L; half-life (single oral dose 16 mg, geometric mean, read-out: t1/2 (terminal half-life) (converted)): 5.92 h; Tmax (single oral dose 16 mg, median, read-out: tmax): 1.98 h; Ae0-24 (amount excreted in urine up to 24 hours postdose) (single oral dose 0.15 mg, geometric mean, N=5): 0.003 mg; AUC(0-∞) [1]: 44.0 (33) ngxh/mL; Ae0-24 (amount excreted in urine up to 24 hours postdose) [1]: 0.048 (53%) mg; CL/F (apparent clearance calculated after oral administration) [1]: 13.6 (33) L/h; AUC(0-∞) [2]: 133 (88) ngxh/mL; Ae0-24 (amount excreted in urine up to 24 hours postdose) [2]: 0.155 (57%) mg; CL/F (apparent clearance calculated after oral administration) [2]: 15.1 (88) L/h; AUC(0-∞) [3]: 396 (39) ngxh/mL; Ae0-24 (amount excreted in urine up to 24 hours postdose) [3]: 0.436 (57%) mg; CL/F (apparent clearance calculated after oral administration) [3]: 12.6 (39) L/h; AUC(0-∞) [4]: 1220 (28) ngxh/mL; Ae0-24 (amount excreted in urine up to 24 hours postdose) [4]: 1.3 (30%) mg; CL/F (apparent clearance calculated after oral administration) [4]: 8.20 (28) L/h; AUC(0-∞) [5]: 1340 (19) ngxh/mL; Ae0-24 (amount excreted in urine up to 24 hours postdose) [5]: 1.14 (36%) mg; CL/F (apparent clearance calculated after oral administration) [5]: 11.9 (19) L/h

From patent publication US20230338349A1, “LOW DOSE REGIMEN AND FORMULATION OF A 5-METHYL-1,2,4-OXADIAZOL-3-YL COMPOUND” (Eli Lilly and Company, priority 2020, published 2023)
